{"source": "paper PMC9306920", "about": "(Clinical Pharmacology in Drug Development, 2022)", "key": {"healthy subjects": {"test_system": "healthy subjects", "test": "Thorough QT study: cardiodynamic ECG assessment", "format": "in vivo, human"}, "[1]": {"test": "Plasma pharmacokinetics in thorough QT study", "format": "in vivo, human", "conditions": "moxifloxacin 400 mg single oral dose"}}, "data": [{"smiles": "COc1c(N2C[C@@H]3CCCN[C@@H]3C2)c(F)cc2c(=O)c(C(=O)O)cn(C3CC3)c12", "note": "[Moxifloxacin]", "values": [{"measurement": "Subjects with QTcF of >450 milliseconds or ΔQTcF of >30 milliseconds", "setting": "healthy subjects; any treatment, any time point", "value": "No subject"}, {"measurement": "U-wave presence", "setting": "healthy subjects; during the study", "value": "No U‐wave observations"}, {"measurement": "Largest LS mean ΔQRS", "setting": "healthy subjects; moxifloxacin 400 mg, 0.5, 1, and […] after dosing", "value": 0.2, "unit": "milliseconds"}, {"measurement": "Largest LS mean ΔΔQTcF", "setting": "healthy subjects; moxifloxacin 400 mg, 2 hours after dosing", "value": 12.9, "unit": "milliseconds"}, {"measurement": "Peak LS mean ΔQTcF", "setting": "healthy subjects; moxifloxacin 400 mg, 3 hours after dosing", "value": 9.2, "unit": "milliseconds"}, {"measurement": "Largest LS mean ΔHR", "setting": "healthy subjects; moxifloxacin 400 mg, 6 hours after dosing", "value": 8.7, "unit": "bpm"}, {"measurement": "Frequencies of flat, notched, and biphasic T-wave morphologies", "setting": "healthy subjects; versus placebo", "value": "lower than or the same as for placebo"}, {"measurement": "Time at which plasma concentration reached its maximal value", "setting": "[1]", "value": 2, "unit": "h"}, {"measurement": "Time plasma concentration remained detectable", "setting": "[1]", "value": 72, "unit": "h"}]}]}
